Experimental findings from US10995068B2, “Synthetic sphingolipid-like molecules, drugs, methods of their synthesis and methods of treatment” (The Regents of the University of California, priority 2015, dated 2021) are described below.

One data set concerns PC3 cells. Briefly: Phosphorylation in intact cells by UPLC-MS/MS, PC3. The data set is classed as in vitro ADME, human. The following applies: 10 μM, 16 h incubation, percent of total compound recovered by UPLC-MS/MS. The procedure:
Mass spectrometric quantification: One million PC3 or 5 million SW620 cells in one well of a 6 well plate are treated with 10 μM FTY720 or 5 for 16 h. Media (100 μl) is removed from the well and combined with 100 μl of acetonitrile. Cells are collected by scraping, pelleted, and re-suspended in 100 μl of HPLC-grade water followed by the addition of 100 μl acetonitrile. Seventy-five nanograms of the compounds not being quantified (FTY720 and FTY720-P for analysis of the phosphorylation of 5, or 5 and 5-P for the analysis of FTY720/FYT720-P) is added to serve as an internal standard to allow correction for loss of compound during sample preparation. […] Insoluble material is again removed by centrifugation and the supernatant analyzed for compound content. Twenty microliters of this de-proteinated sample is analyzed by UPLC-MS/MS (Waters Micromass Quattro Premier XE) equipped with a C18 reversed phase column (Waters) using an acetonitrile (+0.2% acetic acid) gradient elution. […] The cone voltages are 30V for FTY720 and 5, and 20V for FTY720-P and 5-P. A standard curve is generated using pure compounds to allow for quantification; standard curves were linear from 50-1000 ng/ml with an R^2 of 0.98 or greater. […]

In data set [1] the test system is mPCE subcutaneous isografts. Briefly: mPCE subcutaneous prostate isografts. The data set is classed as in vivo. The following applies: C57BL/6 mice. The procedure: The ability of starvation-inducing sphingolipid-like drugs to affect the growth of slow growing or autochthonous neoplasms was also evaluated. In C57BL/6 mice bearing mPCE subcutaneous isografts, 60 mg/kg SH-BC-893 was given daily by gavage and slowed tumor growth by 60% similar to results with SW620 xenografts dosed with 20 mg/kg i.p. (FIGS. 53G-I and 65I). At 120 mg/kg, SH-BC-893 inhibited prostate tumor growth by more than 90% (FIG. 65I). […] Akt activity was slightly elevated by SH-BC-893 consistent with loss of TORC1-mediated negative feedback. Thus, sphingolipid-like compounds, such as SH-BC-893, are effective against neoplasms with distinct molecular defects and metabolic characteristics.
In vivo studies. Experiments conducted in mice were performed in accordance with the Institutional Animal Care and Use Committee of University of California, Irvine following a power analysis conducted in consultation with the Biostatistics Shared Resource of Chao Family Comprehensive Cancer Center at UCI. […] Tumor volume was calculated using the formula, volume (mm^3)=length [mm]×(width [mm])^2×0.52; BLI was measured using an IVIS imaging system (Xenogen). […] Blood chemistry was analyzed by IDEXX BioResearch and complete blood counts were performed using a Hemavet hematology system.

Consider `CCCCCCCCc1ccc([C@H]2CCN[C@@H]2CO)cc1.Cl` [Compound 5, (2S,3R)-2-(hydroxymethyl)-3-(4-octylphenyl)Pyrrolidinium chloride], for which the “efficiency of phosphorylation in intact cells” value with PC3 cells is reported as “phosphorylated slightly more efficiently than FTY720”. The “slowing of tumor growth” value in data set [1] (60 mg/kg daily by gavage) came to 60%. Also, the “inhibition of prostate tumor growth” value in data set [1] (120 mg/kg) is “more than 90%”.
